Results published in US8962627B2, “Oxime derivatives and their use as allosteric modulators of metabotropic glutamate receptors” (Prestwick Chemical, Inc., priority 2009, dated 2015).
Where a name gives a salt, the structure may show the parent alone.

Test system: not given
Assay: not given
Conditions: not given

Row | melting point | Compound
1 | 239 to 241 °C | COc1ccc2cc(-c3cc(=NO)c4ccccc4o3)ncc2c1 [Example 13, 2-(7-methoxy-isoquinolin-3-yl)-chromen-4-one oxime]
2 | 223 to 226 °C | Cl.ON=c1cc(-c2cc3sccc3cn2)oc2ccc(OCCN3CCCOCC3)cc12
3 | 270 to 275 °C (dec.) | ON=c1cc(-c2cc3cc[nH]c3cn2)oc2ccccc12 [Example 75, 2-(1H-Pyrrolo[2,3-c]pyridin-5-yl)-chromen-4-one oxime]
4 | 234 to 236 °C | ON=c1cc(-c2cc3cccn3cn2)oc2ccc(OCCc3ccc(F)cc3)cc12 (as salt: hydrochloride) [Example 109, 6-[2-(4-fluoro-phenyl)-ethoxy]-2-pyrrolo[1,2-c]pyrimidin-3-yl-chromen-4-one oxime, hydrochloride]
5 | 280 °C (dec.) | N#Cc1ccc2oc(-c3cc4ccccc4cn3)cc(=NO)c2c1 [Example 38, 6-cyano-2-isoquinolin-3-yl-chromen-4-one oxime]
6 | 234 to 237 °C | Cl.ON=c1cc(-c2cc3sccc3cn2)oc2ccc(OCCN3CCc4ccccc4C3)cc12
7 | 228 to 234 °C | ON=c1cc(-c2cc3sccc3cn2)oc2ccc(OCCc3ccc(F)cc3)cc12 (as salt: hydrochloride) [Example 130, 6-[2-(4-Fluoro-phenyl)-ethoxy]-2-thieno[3,2-c]pyridin-6-yl-chromen-4-one oxime]
8 | 275 to 278 °C | ON=c1cc(-c2cc3ccccc3cn2)oc2cccc(F)c12 [Example 9]
9 | 233 to 235 °C | ON=c1cc(-c2cc3ccc(F)cc3cn2)oc2ccccc12 [Example 12, 2-(7-fluoro-isoquinolin-3-yl)-chromen-4-one oxime]
10 | > 270 °C (dec.) | Cl.NCCOc1ccc2oc(-c3cc4cccn4cn3)cc(=NO)c2c1
11 | 245 to 247 °C | COc1cccc2cnc(-c3cc(=NO)c4ccccc4o3)cc12 [Example 19, 2-(5-methoxy-isoquinolin-3-yl)-chromen-4-one oxime]
12 | > 250 °C (dec.) | ON=c1cc(-c2cc3cccn3cn2)oc2ccc(OCCn3ccnc3)cc12 (as salt: sodium) [Example 105, 6-(2-imidazol-1-O-ethoxy)-2-pyrrolo[1,2-c]pyrimidin-3-yl-chromen-4-one oxime]
13 | 272 to 275 °C | Nc1cccc(C#Cc2ccc3c(=NO)cc(-c4cc5ccccc5cn4)oc3c2)c1 [Example 29, 7-(3-aminophenyl)ethynyl-2-isoquinolin-3-yl-chromen-4-one oxime]
14 | 253 to 256 °C | ON=c1cc(-c2cc3ccccc3cn2)oc2c(F)cc(F)cc12 [Example 7, 6,8-difluoro-2-isoquinolin-3-yl-chromen-4-one oxime]
15 | > 240 °C (dec.) | CCN1CCN(CCOc2ccc3oc(-c4cc5cccn5cn4)cc(=NO)c3c2)CC1.Cl.Cl [Example 121]
16 | 148 to 150 °C | ON=c1cc(-c2cc3c(cn2)ncn3Cc2ccccc2)oc2ccccc12 [Example 68, 2-(1-Benzyl-1H-imidazo[4,5-c]pyridin-6-yl)-chromen-4-one oxime]
17 | > 270 °C (dec.) | CN(C)CCCOc1ccc2oc(-c3cc4cccn4cn3)cc(=NO)c2c1.Cl
18 | 228 to 233 °C | CN1CCN(CCCNc2ccc3c(=NO)cc(-c4cc5ccccc5cn4)oc3c2)CC1 [Example 49, 2-isoquinolin-3-yl-7-[3-(4-methyl-piperazin-1-yl)-propylamino]-chromen-4-one oxime]
19 | 248 to 250 °C | ON=c1cc(-c2cc3ccc(O)cc3cn2)oc2ccccc12 [Example 60, 2-(7-hydroxy-isoquinolin-3-yl)-chromen-4-one oxime]

Row | melting point | Compound
20 | 310 to 315 °C (dec.) | O=c1[nH]c(-c2c/c(=N\O)c3ccccc3o2)cc2ccccc12 [Example 72, 3-{4-[(E)-Hydroxyimino]-4H-chromen-2-yl}-2H-isoquinolin-1-one]
21 | 292 to 297 °C | ON=c1cc(-c2cc3ccccc3cn2)oc2cc(C#Cc3ccccc3Cl)ccc12 [Example 32, 7-(2-chlorophenyl)ethynyl-2-isoquinolin-3-yl-chromen-4-one oxime]
22 | > 250 °C (dec.) | Cc1cc(C)n2cnc(-c3cc(=NO)c4ccccc4o3)cc12 [Example 64, 2-(5,7-dimethyl-Pyrrolo[1,2-c]pyrimidin-3-yl)-chromen-4-one oxime]
23 | 266 to 269 °C | COc1cc2cnc(-c3cc(=NO)c4ccccc4o3)cc2cc1OC [Example 14, 2-(6,7-dimethoxy-isoquinolin-3-yl)-chromen-4-one oxime]
24 | 233 to 236 °C | CN1CCN(CCOc2ccc3oc(-c4cc5ccccc5cn4)cc(=NO)c3c2)CC1 [Example 46, 2-isoquinolin-3-yl-6-[2-(4-methyl-piperazin-1-yl)-ethoxy]-chromen-4-one oxime]
25 | 267 to 270 °C | Cc1cc2c(=NO)cc(-c3cc4ccccc4cn3)oc2cc1Br [Example 3, 7-bromo-2-isoquinolin-3-yl-6-methyl-chromen-4-one oxime]
26 | 275 to 278 °C | ON=c1cc(-c2cc3ccccc3cn2)oc2cc(-c3ccccc3)ccc12 [Example 47, 2-isoquinolin-3-yl-7-phenyl-chromen-4-one oxime]
27 | 208 to 211 °C | CN1CCN(CCCNc2ccc3oc(-c4cc5ccccc5cn4)cc(=NO)c3c2)CC1 [Example 45, 2-isoquinolin-3-yl-6-[3-(4-methyl-piperazin-1-yl)-propylamino]-chromen-4-one oxime]
28 | 260 to 261 °C | ON=c1cc(-c2cc3ccc(Cl)cc3cn2)oc2ccccc12 [Example 16, 2-(7-chloro-isoquinolin-3-yl)-chromen-4-one oxime]
29 | 268 to 270 °C | ON=c1cc(-c2cc3c(Br)cccc3cn2)oc2ccccc12 [Example 17, 2-(5-bromo-isoquinolin-3-yl)-chromen-4-one oxime]
30 | 235 to 240 °C | CN(C)c1ccc(C#Cc2ccc3c(=NO)cc(-c4cc5ccccc5cn4)oc3c2)cc1 [Example 27, 7-(4-dimethylaminophenyl)ethynyl-2-isoquinolin-3-yl-chromen-4-one oxime]
31 | 283 to 285 °C | ON=c1cc(-c2cc3ccccc3cn2)oc2cc(-c3ccc(-c4ccccc4)cc3)ccc12 [Example 48, 7-(4-biphenyl)-2-isoquinolin-3-yl-chromen-4-one oxime]
32 | 195 to 197 °C | Cl.O=S1(=O)CCN(CCOc2ccc3oc(-c4cc5sccc5cn4)cc(=NO)c3c2)CC1
33 | > 230 °C (dec.) | Cl.ON=c1cc(-c2cc3cccn3cn2)oc2ccc(OCCNC3CCCC3)cc12
34 | 270 to 272 °C | ON=c1cc(-c2cc3ccccc3cn2)oc2c(Cl)cccc12 [Example 8, 8-chloro-2-isoquinolin-3-yl-chromen-4-one oxime]
35 | 248 to 250 °C | Cc1cc2c(=NO)cc(-c3cc4ccccc4cn3)oc2cc1C#Cc1ccccc1 [Example 25]
36 | 239 to 241 °C | ON=c1cc(-c2ncc3ccccc3n2)oc2ccccc12 [Example 110, 2-quinazolin-2-yl-chromen-4-one oxime]
37 | > 275 °C (dec.) | CN(C)CCOc1ccc2oc(-c3cc4cccn4cn3)cc(=NO)c2c1.Cl

Target: T1, human mGluR4 transiently over-expressed in HEK-293 cells (Homo sapiens, UniProt Q14833)
T1 construct: expressed in transfected cells; host or cells: HEK-293 cells, transient co-transfection by electroporation
Assay: Human mGluR4 positive allosteric modulator evaluation using Ca++ functional assay
Type: cell-based
Conditions: HEK-293 cells co-transfected with hmGluR4 and chimeric G protein; EC10 glutamate; intracellular calcium (Fluo4AM); read-out: mean EC50 of agonist/positive allosteric modulator activity on mGluR4
Description: Human mGluR4 Positive Allosteric Modulator Evaluation Using Ca^++ Functional Assay
Compounds of the present invention were tested successively for their agonist and positive allosteric modulator activities on human mGluR4 transiently over-expressed in HEK-293 cells. They exert agonist activity if, by themselves in absence of the endogenous glutamate, they are able to activate mGluR4; and they exert positive allosteric modulator activity if they increase the action of the endogenous glutamate.
Cell Culture and Transfection
HEK-293 cells were maintained in Modified Eagle's Medium supplemented with 10% Foetal Calf Serum, 1% Penicillin/Streptomycin and 1% non essential amino acids at 37° C./5% CO2.
Cells were co-transfected by electroporation with two DNA plasmids encoding hmGluR4 and a chimeric G protein allowing redirection of the activation signal to intracellular calcium pathway. Cells were plated after transfection onto polyornithine coated, clear bottom, black-walled, 96-well plates and cultured for 24 h.
Calcium Assay EC50 Determination
Receptor activity was detected by changes in intracellular calcium measured using the fluorescent Ca^2+ sensitive dye, Fluo4AM (Molecular Probes).
The day of the assay, medium was aspirated and replaced during 3 hours by medium without serum supplemented with 1% Glutamax, 1% Penicillin/Streptomycin and 1% non essential amino acids. Then, cells were washed with freshly prepared buffer B (HBSS 1×(PAA), Hepes 20 mM, MgSO4-7H2O 1 mM, Na2CO3 3.3 mM, CaCl2-2H2O 1.3 mM, 0.5% BSA, Probenecid 2.5 mM) and loaded at 37° C. in 5% CO2 for 1.5 hours with buffer B containing 1 μM Fluo4AM 0.1 mg/mL Pluronic Acid, 7 μg/mL Glutamate Pyruvate Transaminase and 2 mM sodium pyruvate. Afterwards cells were washed twice with buffer B and 50 μL of this buffer were added to each well. Addition of compounds and intracellular Ca^2+ measurements (excitation 485 nm, emission 525 nm) were performed by the fluorescence microplate reader FlexStation (Molecular Devices).
Agonist and positive allosteric modulator activities of compounds were consecutively evaluated on the same cells plate. Agonist activity was first tested during 60 s with the addition of compound alone on the cells. Then, the cells were stimulated by an EC10 glutamate concentration and fluorescence recorded for additional 60 s. EC10 glutamate concentration is the concentration giving 10% of the maximal glutamate response. Agonist and/or positive allosteric modulator activity(ies) were evaluated in comparison to basal signal evoked by EC10 glutamate alone.
For EC50 determination, a dose-response test was performed using 6 to 9 concentrations of each compound of the invention. Dose-response curves were fitted using the sigmoidal dose-response (variable slope) analysis in GraphPad Prism program (Graph Pad Inc) and EC50 of agonist/positive allosteric modulator activity was calculated. Dose-response experiments were all performed in duplicate, two times independently.

T1 sequence (Q14833 33-912): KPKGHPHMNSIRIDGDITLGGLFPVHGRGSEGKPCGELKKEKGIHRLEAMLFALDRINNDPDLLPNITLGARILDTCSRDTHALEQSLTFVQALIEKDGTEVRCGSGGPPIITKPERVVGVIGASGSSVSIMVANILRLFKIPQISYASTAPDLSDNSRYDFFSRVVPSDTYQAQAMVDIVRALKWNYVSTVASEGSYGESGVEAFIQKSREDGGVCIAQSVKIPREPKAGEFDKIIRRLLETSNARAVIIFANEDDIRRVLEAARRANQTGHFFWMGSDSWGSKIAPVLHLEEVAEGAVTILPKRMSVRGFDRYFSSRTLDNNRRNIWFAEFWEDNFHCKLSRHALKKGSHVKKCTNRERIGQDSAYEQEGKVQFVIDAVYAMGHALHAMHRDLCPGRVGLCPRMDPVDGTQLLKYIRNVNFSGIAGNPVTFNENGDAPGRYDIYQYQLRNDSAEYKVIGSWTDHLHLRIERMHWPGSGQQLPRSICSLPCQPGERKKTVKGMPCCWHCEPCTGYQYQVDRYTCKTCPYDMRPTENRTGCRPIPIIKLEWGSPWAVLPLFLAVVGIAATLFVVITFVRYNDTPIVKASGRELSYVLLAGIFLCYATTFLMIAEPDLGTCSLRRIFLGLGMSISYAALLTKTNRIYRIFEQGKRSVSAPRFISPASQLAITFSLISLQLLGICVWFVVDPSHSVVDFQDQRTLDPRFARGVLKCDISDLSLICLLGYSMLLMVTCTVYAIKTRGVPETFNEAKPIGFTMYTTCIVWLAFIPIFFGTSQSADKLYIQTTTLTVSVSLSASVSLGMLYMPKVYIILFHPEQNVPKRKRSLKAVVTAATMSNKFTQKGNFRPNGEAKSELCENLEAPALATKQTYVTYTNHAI

Row | EC50 [nM] | Compound
38 | < 1000 | ON=c1cc(-c2cc3cccn3cn2)oc2ccc(CCCN3CCOCC3)cc12 [Example 106, 6-(3-morpholin-4-yl-propyl)-2-pyrrolo[1,2-c]pyrimidin-3-yl-chromen-4-one oxime, hydrochloride]
39 | < 1000 | ON=c1cc(-c2cc3cccn3cn2)oc2ccc(OCCN3CCC(F)(F)CC3)cc12 [Example 103, hydrochloride]
40 | < 5000 | COc1ccc(C#Cc2ccc3c(=NO)cc(-c4cc5ccccc5cn4)oc3c2)cc1 (mixture of isomers) [Example 31, 2-isoquinolin-3-yl-7-(4-methoxyphenyl)ethynyl-chromen-4-one oxime]
41 | < 1000 | ON=c1cc(-c2cc3cccn3cn2)oc2ccc(OCCCOc3ccc(F)c(F)c3)cc12 [Example 164, 6-[3-(3,4-Difluoro-phenoxy)-propoxy]-2-pyrrolo[1,2-c]pyrimidin-3-yl-chromen-4-one oxime]
